The results in this text go back to patent US10253002B2, “Compounds and methods of treating infections” (Neoculi Pty Ltd., priority 2013, dated 2019).

In brackets after ≈: the same amount, converted by molar mass. Several values for one entry are separate records, joined by “and”; a condition that tells them apart may be missing. Equal values may be shown once. Some results are limits rather than exact numbers.

For the first experiment, the system named is S. aureus ATCC29213. Briefly: Broth microdilution MIC, Example 7 (NCL analogues), Table 42. The following applies: S. aureus ATCC29213, 24 hours. It counts as cell-based, Staphylococcus aureus.
With `CC(Nc1cc(NC(C)c2ccccc2)nc(N)n1)c1ccccc1` (stereo not drawn) [NCL 184], the “MIC (μg/ml) at 24 hours S. aureus ATCC29213” value is greater than 64 µg/mL.
For the compound `C/C(=N\Nc1cc(N/N=C(\C)c2ccc(Cl)cc2)ncn1)c1ccc(Cl)cc1.Cl` [NCL 185], the “MIC (μg/ml) at 24 hours S. aureus ATCC29213” value was greater than 64 µg/mL.
Consider `CC(Nc1cnc(NC(C)c2ccc(Cl)cc2)cn1)c1ccc(Cl)cc1` (stereo not drawn) [NCL 186], for which the “MIC (μg/ml) at 24 hours S. aureus ATCC29213” value is greater than 64 µg/mL.
With `Cl.Clc1ccc(/C=N/Nc2cc(N/N=C/c3ccc(Cl)cc3)ncn2)cc1` [NCL 187], the “MIC (μg/ml) at 24 hours S. aureus ATCC29213” value was greater than 64 µg/mL.
Take `Cl.[H]/N=C(\N)NN=C(CCCC)c1ccc(Cl)cc1` [NCL 188]: the “MIC (μg/ml) at 24 hours S. aureus ATCC29213” value was 32 µg/mL.
For `Cl.OC/C(=N\Nc1cc(N/N=C(\CO)c2ccc(Cl)cc2)ncn1)c1ccc(Cl)cc1` [NCL 189], the “MIC (μg/ml) at 24 hours S. aureus ATCC29213” value was greater than 64 µg/mL.
On the same count and under the same terms, for `Cl.[H]/N=C(/N)NN=C(CNN)c1ccc(Cl)cc1` [NCL 190] the value was 32 µg/mL and 64 µg/mL; for `C/C(=N\NC(=N)N)c1ccc(Cl)cc1.Cl` [NCL 191], greater than 64 µg/mL; for `Cl.N=C(N)NN=C(C(=O)O)c1ccccc1` [NCL 192], greater than 64 µg/mL.

In a further experiment the test system is Escherichia coli. Briefly: Broth microdilution MIC, Example 7 (NCL812 and analogues). It counts as cell-based. The following applies: E. coli ATCC25922, 24 hours.
Turning to `CC(Nc1cc(NC(C)c2ccccc2)nc(N)n1)c1ccccc1` (stereo not drawn) [NCL 184], the “MIC (μg/ml) at 24 hours E. coli ATCC25922” value was greater than 64 µg/mL.
On to `C/C(=N\Nc1cc(N/N=C(\C)c2ccc(Cl)cc2)ncn1)c1ccc(Cl)cc1.Cl` [NCL 185], for which the “MIC (μg/ml) at 24 hours E. coli ATCC25922” value was greater than 64 µg/mL.
For the compound `CC(Nc1cnc(NC(C)c2ccc(Cl)cc2)cn1)c1ccc(Cl)cc1` (stereo not drawn) [NCL 186], the “MIC (μg/ml) at 24 hours E. coli ATCC25922” value was greater than 64 µg/mL.
For the compound `Cl.Clc1ccc(/C=N/Nc2cc(N/N=C/c3ccc(Cl)cc3)ncn2)cc1` [NCL 187], the “MIC (μg/ml) at 24 hours E. coli ATCC25922” value was greater than 64 µg/mL.
`Cl.[H]/N=C(\N)NN=C(CCCC)c1ccc(Cl)cc1` [NCL 188]: the “MIC (μg/ml) at 24 hours E. coli ATCC25922” value was determined as 64 µg/mL.
As for `Cl.OC/C(=N\Nc1cc(N/N=C(\CO)c2ccc(Cl)cc2)ncn1)c1ccc(Cl)cc1` [NCL 189], the “MIC (μg/ml) at 24 hours E. coli ATCC25922” value is greater than 64 µg/mL.
The same measure, in the same setting: the figure for `Cl.[H]/N=C(/N)NN=C(CNN)c1ccc(Cl)cc1` [NCL 190] is greater than 64 µg/mL; for `C/C(=N\NC(=N)N)c1ccc(Cl)cc1.Cl` [NCL 191] it is greater than 64 µg/mL; for `Cl.N=C(N)NN=C(C(=O)O)c1ccccc1` [NCL 192] it is greater than 64 µg/mL.

Another experiment has as its system Pseudomonas aeruginosa. Described as above. As to conditions: Pseudomonas #008, 24 hours. It is filed as cell-based.
As for `CC(Nc1cc(NC(C)c2ccccc2)nc(N)n1)c1ccccc1` (stereo not drawn) [NCL 184], the “MIC (μg/ml) at 24 hours Pseudomonas #008” value was greater than 64 µg/mL.
As to `C/C(=N\Nc1cc(N/N=C(\C)c2ccc(Cl)cc2)ncn1)c1ccc(Cl)cc1.Cl` [NCL 185], the “MIC (μg/ml) at 24 hours Pseudomonas #008” value was greater than 64 µg/mL.
Still for that read-out and setting: for `CC(Nc1cnc(NC(C)c2ccc(Cl)cc2)cn1)c1ccc(Cl)cc1` (stereo not drawn) [NCL 186] the value was greater than 64 µg/mL; for `Cl.Clc1ccc(/C=N/Nc2cc(N/N=C/c3ccc(Cl)cc3)ncn2)cc1` [NCL 187], greater than 64 µg/mL; for `Cl.[H]/N=C(\N)NN=C(CCCC)c1ccc(Cl)cc1` [NCL 188], greater than 64 µg/mL.
As to `Cl.OC/C(=N\Nc1cc(N/N=C(\CO)c2ccc(Cl)cc2)ncn1)c1ccc(Cl)cc1` [NCL 189], the “MIC (μg/ml) at 24 hours Pseudomonas #008” value was greater than 64 µg/mL.
For `Cl.[H]/N=C(/N)NN=C(CNN)c1ccc(Cl)cc1` [NCL 190], the “MIC (μg/ml) at 24 hours Pseudomonas #008” value is greater than 64 µg/mL.
Turning to `C/C(=N\NC(=N)N)c1ccc(Cl)cc1.Cl` [NCL 191], the “MIC (μg/ml) at 24 hours Pseudomonas #008” value was greater than 64 µg/mL.
Same read-out and setting: the figure for `Cl.N=C(N)NN=C(C(=O)O)c1ccccc1` [NCL 192] is greater than 64 µg/mL.

For the next experiment, the system named is E. faecalis #32. In words: Broth microdilution MIC, Example 7 (NCL analogues), Table 42. It is filed as cell-based, Enterococcus faecalis. As to conditions: E. faecalis #32, 24 hours. (Broth dilution looks for growth in wells or tubes with falling amounts of substance.)
With `CC(Nc1cc(NC(C)c2ccccc2)nc(N)n1)c1ccccc1` (stereo not drawn) [NCL 184], the “MIC (μg/ml) at 24 hours E. faecalis #32” value came to 64 µg/mL (≈ 192 µM).
Still for that read-out and setting: for `C/C(=N\Nc1cc(N/N=C(\C)c2ccc(Cl)cc2)ncn1)c1ccc(Cl)cc1.Cl` [NCL 185] the value was greater than 64 µg/mL; for `CC(Nc1cnc(NC(C)c2ccc(Cl)cc2)cn1)c1ccc(Cl)cc1` (stereo not drawn) [NCL 186], greater than 64 µg/mL.
In the case of `Cl.Clc1ccc(/C=N/Nc2cc(N/N=C/c3ccc(Cl)cc3)ncn2)cc1` [NCL 187], the “MIC (μg/ml) at 24 hours E. faecalis #32” value is greater than 64 µg/mL.
On the same count and under the same terms, for `Cl.[H]/N=C(\N)NN=C(CCCC)c1ccc(Cl)cc1` [NCL 188] the value was 32 µg/mL; for `Cl.OC/C(=N\Nc1cc(N/N=C(\CO)c2ccc(Cl)cc2)ncn1)c1ccc(Cl)cc1` [NCL 189], greater than 64 µg/mL; for `Cl.[H]/N=C(/N)NN=C(CNN)c1ccc(Cl)cc1` [NCL 190], 64 µg/mL.
Regarding `C/C(=N\NC(=N)N)c1ccc(Cl)cc1.Cl` [NCL 191], the “MIC (μg/ml) at 24 hours E. faecalis #32” value was greater than 64 µg/mL.
Regarding `Cl.N=C(N)NN=C(C(=O)O)c1ccccc1` [NCL 192], the “MIC (μg/ml) at 24 hours E. faecalis #32” value is greater than 64 µg/mL.
